Assay results published in patent US5360796A, “Imidazo[1,2-a]pyridinylalkyl phosphonic acid compounds for treatment of neurotoxic injury” (G. D. Searle & Co., priority 1991, dated 1994).

Target: NMDA receptor
Assay: NMDA-Selective Glutamate Binding Assay (L-[3H]glutamate)
Design: species or system rat
Conditions: 12.5 nM L-[3H]glutamate, synaptic plasma membranes, pH 7.4, 0-4° C., 10 min; read-out: NMDA Receptor Binding Data, Ki IC50 Binding NMDA
Protocol: Synaptic plasma membranes (SPM) were prepared as previously described [Monahah, J. B. and Michel, J., "Identification and Characterization of an N-methyl-D-aspartate-specific L[^3 H]glutamate Recognition Site in Synaptic Plasma Membranes, J. Neurochem., 48, 1699-1708 (1987)]. The SPM were stored at a concentration of 10-15 mg/ml in 0.32M sucrose, 0.5 mM EDTA, 1 mM MgSO4, 5 mM Tris/SO4, pH 7.4, under liquid nitrogen. The identity and purity of the subcellular fractions were confirmed by both electron microscopy and marker enzymes. Protein concentrations were determined by using a modification of the method of Lowry [Ohnishi, S. T. and Barr, J. K., "A Simplified Method of Quantitating Proteins using the Biuret and Phenol Reagents", Anal. Biochem., 86, 193-197 (1978)]. The SPM were treated identically for the [^3 H]AMPA (QUIS), [^3 H]kainate and sodium-dependent L-[^3 H]-glumatate binding assays. The SPM were thawed at room temperature, diluted twenty-fold with 50mM Tris/acetate, pH 7.4, incubated at 37° C. for 30 minutes, and centrifuged at 100,000 g for 15 minutes. The dilution, incubation, and centrifugation was repeated a total of three times. Prior to use in the NMDA-specific L-[^3 H]-glutamate binding assay the SPM were thawed, diluted twenty fold with 50 mM Tris/acetate, pH 7.4 containing 0.04% (v/v) Triton X-100, incubated for 30 minutes at 37° C. and centrifuged as described above. The Triton X-100 treated membranes were washed with 50 mM Tris/acetate, pH 7.4 and centrifuged at 100,000 g for 15 minutes a total of four times. […] The basic procedure for the receptor subclass binding assays was similar. This general method involved adding the radioligand (12.5 nM L-[^3 H] glutamate; 0.5 nM [^3 H]kainate or 10 nM [^3 H]AMPA) to the appropriate concentration of the test compound and initiating the assay by the addition of ice cold synaptic plasma membranes (0.2-0.45 mg). The binding assays were performed in 1.5 mL centrifuge tubes with the total volume adjusted to 1.0 mL. Additions of test compounds were made in 50 mM Tris/acetate, pH 7.4 and incubations were carried out at 0°-4° C. The incubation time for the NMDA and the AMPA binding assays was 10 minutes, for the kainate binding assay 60 minutes and for the sodium-dependent glutamate binding assay 15 minutes. The AMPA binding assay contained 100 mM KSCN and the sodium-dependent glutamate binding assay contained 150 mM sodium acetate in addition to the previously described reagents. To terminate the incubation, the samples were centrifuged for 15 minutes at 12,000 g and 4° C. in a Beckman Microfuge 12. The supernatant was aspirated and the pelleted membranes dissolved in Beckman BTS-450 tissue solubilizer for a minimum of 6 hours at room temperature. Beckman MP scintillation cocktail containing 7 mL/1 acetic acid was then added and the samples counted on a Beckman LS 5800 or 3801 liquid scintillation counter with automatic corrections for quenching and counting efficiency. Nonspecific binding was defined as the residual binding in the presence of either excess L-glutamate (0.1-0.4 mM), kainate (0.01 mM), or NMDA (0.5 mM), and was 15-25% of the total binding in the NMDA binding assay, 19-27% in the AMPA binding assay, 20-30% in the kainate binding assay and 10-15% in the sodium-dependent binding assay. Radioligand binding to the synaptic plasma membranes was analyzed using Scatchard and Hill transformations and the Ki values of the compounds determined using logit-log transformations. Calculations and regression analysis were performed using templates developed for Lotus 1, 2, 3 as previously described [Pullan, L. M. "Automated Radioligand Receptor Binding Analysis with Templates for Lotus", Computer Appln. Biosci., 3, 131 (1987)]. Binding results are reported in Table I for example compounds of the invention.

**Q.** For `O=C(O)c1cn2c(CP(=O)(O)O)cccc2n1` [Example 7, 5-(phosphonomethyl)imidazo[1,2-a]pyridine-2-carboxylic acid], which Ki is on record?
**A.** 2400 nM
